Test results taken from paper PMC3265452 (PLoS Neglected Tropical Diseases, 2012).
Counter-ions that a name gives are not always drawn. Like-named read-outs stand apart in the source and are kept apart here.

How the values were obtained:
[1] = target: T1, AaDOP2 (Aedes aegypti, UniProt H6D5H2); experiment: AaDOP2 antagonist screen of the LOPAC1280 library (HEK-CRELuc-Aadop2 cells, luminescence); type: cell-based; settings: for inhibition at 10 µM: read-out: % of the SCH23390 effect (percent inhibition of receptor response relative to the SCH23390 control)
[2] = target: T2, human D1 dopamine receptor (hD1) (Homo sapiens, UniProt P21728); experiment: cAMP accumulation secondary assay, hD1-expressing cells; type: cell-based
T2 construct: expressed in transfected cells

[3] = tested on: Ae. aegypti L4-stage larvae (Liverpool strain); experiment: whole plant or invertebrate; type: in vivo, Aedes aegypti; settings: for average mortality: single dose-point 400 µM, 24 hours post-treatment
Procedure: Single dose-point and dose response in vivo mosquito bioassays were used to assess the toxicity of selected AaDOP2 receptor antagonists identified in the chemical screen. Larvae of Ae. aegypti (Liverpool strain) were reared under standard laboratory conditions on a 12 hr day/night cycle at 75% RH and 28°C, and bioassays were conducted at room temperature (22–24°C). Larvae were transferred from standard rearing trays into six-well tissue culture plates (Corning, Inc. Corning, NY) using a small plastic pipette. Ten L4-stage larvae were included per well, each containing five ml of de-ionized water and the assigned drug concentration. Controls were conducted similarly but lacked a drug treatment. Bioassays employed a double-blind experimental design, and percent mortality was scored 24 hr following administration of drugs. Single dose-point assays were conducted using 400 µM drug and included three biological replicates each consisting of 50–100 larvae. Dose-response assays were conducted using five doses (400, 200, 100, 50, and 25 µM) of the compounds suspended in water, with water alone as a control. Five technical replicates, each including 10 larvae, were performed per dose, and the assay was repeated three times.

[4] = target: T1, AaDOP2; settings: for Relative fold selectivity for AaDOP2 vs. hD1: from IC50 values at AaDOP2 and hD1
[5] = target: T1, AaDOP2; experiment: cell-based
[6] = target: T3, AaDOP1 (Aedes aegypti, UniProt H6D5H1); experiment: CRELuc reporter dose-response in HEK293 cells stably expressing AaDOP1; type: cell-based
[7] = target: T1, AaDOP2
[8] = target: T3, AaDOP1; settings: single dose of dopamine 10 µM, n = 3
[9] = target: T1, AaDOP2; settings: single dose of dopamine 10 µM, n = 3
[10] = 10 µM SCH23390 in the presence of 1 µM dopamine

T3 sequence (H6D5H1 entry or part of it): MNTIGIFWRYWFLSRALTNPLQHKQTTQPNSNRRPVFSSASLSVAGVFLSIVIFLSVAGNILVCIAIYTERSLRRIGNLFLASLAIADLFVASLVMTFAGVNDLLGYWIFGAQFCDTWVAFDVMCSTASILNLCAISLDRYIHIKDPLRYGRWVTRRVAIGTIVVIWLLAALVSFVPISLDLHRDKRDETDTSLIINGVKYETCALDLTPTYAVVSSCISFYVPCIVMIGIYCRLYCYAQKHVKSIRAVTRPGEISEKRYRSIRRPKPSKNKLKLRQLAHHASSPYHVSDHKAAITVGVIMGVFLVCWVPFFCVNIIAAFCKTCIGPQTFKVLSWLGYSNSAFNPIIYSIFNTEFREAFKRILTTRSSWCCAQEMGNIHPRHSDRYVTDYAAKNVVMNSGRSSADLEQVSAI
T1 sequence (H6D5H2 1-476): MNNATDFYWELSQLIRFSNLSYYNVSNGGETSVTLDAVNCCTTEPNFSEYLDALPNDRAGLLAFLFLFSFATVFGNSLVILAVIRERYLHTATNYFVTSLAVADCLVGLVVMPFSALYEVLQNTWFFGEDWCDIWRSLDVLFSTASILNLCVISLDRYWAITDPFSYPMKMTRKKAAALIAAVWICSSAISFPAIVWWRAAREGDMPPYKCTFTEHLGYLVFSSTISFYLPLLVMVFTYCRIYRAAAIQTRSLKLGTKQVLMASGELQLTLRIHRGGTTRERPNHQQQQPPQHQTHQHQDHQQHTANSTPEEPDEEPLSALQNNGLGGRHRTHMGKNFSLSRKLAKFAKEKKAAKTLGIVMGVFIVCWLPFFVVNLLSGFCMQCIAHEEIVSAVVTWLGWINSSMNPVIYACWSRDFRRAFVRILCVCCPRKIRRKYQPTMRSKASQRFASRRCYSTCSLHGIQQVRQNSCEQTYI
T2 sequence (P21728 whole entry): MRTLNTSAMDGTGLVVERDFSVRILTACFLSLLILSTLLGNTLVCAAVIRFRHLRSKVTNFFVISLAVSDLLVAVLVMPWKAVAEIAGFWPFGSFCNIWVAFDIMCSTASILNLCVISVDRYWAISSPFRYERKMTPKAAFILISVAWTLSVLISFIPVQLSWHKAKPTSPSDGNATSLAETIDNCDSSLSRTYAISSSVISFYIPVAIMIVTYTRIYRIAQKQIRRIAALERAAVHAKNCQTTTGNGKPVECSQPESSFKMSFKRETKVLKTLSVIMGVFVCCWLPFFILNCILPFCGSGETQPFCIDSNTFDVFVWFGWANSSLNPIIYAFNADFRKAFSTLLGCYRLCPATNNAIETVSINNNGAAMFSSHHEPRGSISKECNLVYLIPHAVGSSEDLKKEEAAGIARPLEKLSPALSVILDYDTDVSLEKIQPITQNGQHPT

SMILES: CN(C)CCC=C1c2ccccc2CCc2ccccc21 [Compound 92, Amitriptyline hydrochloride]
- Compound effect (percent receptor signaling in presence of test compound, relative lux units relative to the SCH23390 control) [1]: 10
- inhibition at 10 µM [1]: 90%
- IC50 [2]: 470 ± 49 nM
- LC50 ([3]; Aedes aegypti, 24 h): 78000 nM
- LC90 ([3]; dose-response 25-400 µM, 24 hr): 185000 nM
- average mortality [3]: 93%
- Relative fold selectivity for AaDOP2 vs. hD1 ([4]; listed as Amitriptyline): 36 fold
- Relative fold selectivity for AaDOP2 vs. hD1 ([4]; listed as amitriptyline): more than 30 fold
- IC50 [5]: 14 ± 3.4 nM

SMILES: CN(C)CCC=C1c2ccccc2COc2ccccc21 [Compound 386, Doxepin hydrochloride]
- average mortality [3]: 72%

SMILES: CN1CCc2cc(Cl)c(O)cc2[C@@H](c2ccccc2)C1 [Compound 446, R(+)-SCH-23390 hydrochloride]
- inhibition of dopamine-mediated stimulation of AaDOP1 [6, 10]: robustly inhibited
- inhibition at 10 µM [1]: 83%
- inhibition of dopamine-mediated stimulation of AaDOP2 [7, 10]: robustly inhibited
- IC50 [5]: 1600 ± 73 nM

SMILES: NCCc1ccc(O)c(O)c1 [Compound 603, Dopamine hydrochloride]
- EC50 [6]: 3.1 ± 1.1 nM
- increase of intracellular cAMP [8]: 2.7±0.6 fold
- increase of intracellular cAMP [9]: 48±14 fold

SMILES: CSc1ccc2c(c1)C(N1CCN(C)CC1)Cc1ccccc1S2.O=C(O)/C=C\C(=O)O (stereo not shown) [Methiothepin, methiothepin maleate]
- IC50 ([2]; read-out: IC50 value (at 100 nM dopamine for hD1), 100 nM dopamine, cAMP accumulation): 80 ± 11 nM
- Relative fold selectivity for AaDOP2 vs. hD1 [4]: 5.7 fold
- IC50 ([4]; read-out: IC50 value (at 3 µM dopamine for AaDOP2), 3 µM dopamine, cAMP accumulation): 14 ± 5.1 nM

SMILES: Oc1cc2c(c(Cl)c1O)CCNCC2c1ccccc1 (stereo not shown) [SKF 81297]
- EC50 ([6]; HEK293 cells stably expressing CRELuc reporter and AaDOP1, read-out: EC50 values AaDOP1): 24 ± 7 nM
- EC50 ([7]; read-out: EC50 values AaDOP2, HEK293 cells stably expressing CRELuc reporter and AaDOP2, ≥10 µM considered lacking intrinsic activity): ≥ 10000 nM
